Laboratory results taken from patent publication US10399959B2, “Acid-addition salt of Trk-inhibiting compound” (ONO PHARMACEUTICAL CO., LTD., priority 2014, dated 2019).
Read-outs that look alike come from different tables or passages of the source.

Legend:
[1] = Test regarding solubility in artificial intestinal juice (FaSSIF); type: physicochemical; conditions: after lapsing 0.25 hours; for solubility at 0.25 h / solubility: artificial intestinal juice (FaSSIF); for solubility at 0.25 h: 37 °C, fassif, thermodynamic from solid; for solubility / solubility per free base: 37° C.
Description: About 5 mg of the present compound was weighed in a test tube, a stirrer and 5 mL of an artificial intestinal juice (FaSSIF; Reference 1: Pharmaceutical Research, Vol. 20, pp. 1674-1680, 2003, and Reference 2: Biological & Pharmaceutical Bulletin, Vol. 34, pp. 401-407, 2011) were added in the test tube, and the test tube was then hermetically sealed. The test tube was placed in a solubility test apparatus (Gilson, Quad-Z 215), and stirring was performed at 37° C. and 700 rpm. A part of the liquid in the test tube was collected after lapsing 0.25, 0.5, 1, 3, 6, and 24 hours, respectively. The collected liquid was filtered with a filter, and the filtrate was diluted to 2-fold with acetonitrile. The diluted liquid was centrifuged at 3,000 rpm for 5 minutes. A supernatant after centrifugation was used as a sample solution and calculated for solubility by means of high-performance liquid chromatography.
High-Performance Liquid Chromatography Measurement Conditions

[2] = test system: sodium monoiodoacetate-induced model rats; assay: Analgesic effect on sodium monoiodoacetate-induced model rats; type: in vivo, rat; conditions: MIA rats, day 24
[3] = test system: rat NGF-induced vascular hyper permeability; assay: Inhibiting effect of rat NGF-induced vascular hyper permeability; type: in vivo; conditions: 1 mg/kg oral (as free base)
Description: TrkA-inhibiting activity of the present compound was evaluated in vivo. The present compound dissolved in a medium was orally administered (adminstered volume: 5 mL/kg) to male CD(SD)IGS rats (7- to 9-week old, Charles River Laboratories Japan, Inc.) shaved on the back. A medium was orally administered (adminstered volume: 5 mL/kg) to the control and normal groups. After 12 or 14 hours of administration, 3 μg/mL of an NGF (Mouse 2.5s, Natural, Invitrogen) solution prepared in 0.1% BSA (Sigma-Aldrich)-containing saline was intracutaneously administered (adminstered volume; 50 μL/site) at 3 sites on the back of animals under halothane anesthesia. For the normal group, 0.1% BSA-containing saline was intracutaneously administered (adminstered volume; 50 μL/site) at 3 sites on the back. Immediately after intracutaneous administration, 1% Evans Blue (Tokyo Chemical Industriy Co., Ltd.) dissolved in saline was administered intravenously from tail (adminstered volume: 3 mL/kg). After 10 minutes of administration, the animals were sacrificed by bleeding due to incision of the abdominal aorta. The sites of intracutaneous administration on the back (3 sites) were excised, and the skin samples were respectively transferred to the wells in a 48-well plate (Asahi Glass Co., Ltd.). […] The formamide extraction solution (200 μL) was transferred to a 96-well plate, and the absorbance (wavelength: 620 nm) of Evans Blue extracted in formamide was measured on an absorbance microplate reader (SpectraMAX 190, Molecular Devices Japan, K.K.). Standard samples of Evans Blue dissolved in formamide (0, 0.78, 1.56, 3.13, 6.25, 12.5, 25, and 50 μg/mL) were measured at the same time for the absorbance (wavelength: 620 nm), thereby preparing a calibration curve. Based on the calibration curve and the absorbances of the respective samples, the concentrations of Evans Blue in each sample was calculated. […] The rate of inhibition for rat NGF-induced vascular hyper permeability of the present compound was calculated according to the following Equation 4. […]

[4] = FaSSIF, salt value converted to the corresponding free base, read-out: solubility per free base
[5] = present compound oral twice a day over 10 days, then 3 hours before measurement, dose (0.1, 0.3 or 1 mg/kg) not given
[6] = 14 hours before administration of NGF
[7] = FaSSIF, salt value converted to the corresponding free base, Methanesulfonate
[8] = as the substance itself (salt or free base), Methanesulfonate

Compound: Nc1ncc(Cl)cc1-c1ccc(Oc2ncc(NC(=O)Nc3cc(C(F)(F)F)ccc3-n3cccn3)cn2)cc1 [p-toluenesulfonate of Compound (III), 1-(2-(1H-pyrazol-1-yl)-5-(trifluoromethyl)phenyl)-3-(2-(4-(2-amino-5-chloropyridin-3-yl)phenoxy)pyrimidin-5-yl)urea p-Toluenesulfonate]
- solubility at 0.25 h [1, 4]: 42 µg/mL
- solubility at 0.25 h ([1]; as the substance itself (salt or free base), read-out: solubility): 55 µg/mL

Compound: CS(=O)(=O)c1ccc(C(F)(F)F)cc1NC(=O)Nc1cnc(Oc2ccc(-c3cc(Cl)cnc3N)cc2)nc1 [p-toluenesulfonate of Compound (I), 1-{2-[4-(2-amino-5-chloro-3-pyridinyl)phenoxy]-5-pyrimidinyl}-3-[2-(methylsulfonyl)-5-(trifluoromethyl)phenyl]urea p-toluenesulfonate]
- solubility ([1]; as the substance itself (salt or free base), p-toluenesulfonate): 96 µg/mL
- solubility at 0.25 h [1, 4]: 74 µg/mL

Compound: COc1cccc(C2(O)CCCCC2CN(C)C)c1 (stereo not drawn) [tramadol, reference compound]
- percent improvement (right hind limb weight load ratio) ([2]; tramadol 10 mg/kg subcutaneous one hour before measurement): 43%

Compound: CN1CC[C@]23c4c5ccc(O)c4O[C@H]2[C@@H](O)C=C[C@H]3[C@H]1C5 [morphine, reference compound]
- percent improvement (right hind limb weight load ratio) ([2]; morphine 3 mg/kg subcutaneous one hour before measurement): 54%

Compound: CS(=O)(=O)c1ccc(C(F)(F)F)cc1NC(=O)Nc1cnc(Oc2ccc(-c3cc(Cl)cnc3N)cc2)nc1 [Compound (I), 1-{2-[4-(2-amino-5-chloro-3-pyridinyl)phenoxy]-5-pyrimidinyl}-3-[2-(methylsulfonyl)-5-(trifluoromethyl)phenyl]urea]
- solubility ([1]; as the substance itself (salt or free base)): 7 µg/mL

Compound: Nc1ncc(F)cc1-c1ccc(Oc2ncc(NC(=O)Nc3cc(C(F)(F)F)ccc3-c3cccnc3)cn2)cc1 [di(p-toluenesulfonate) of Compound (II), 1-{2-[4-(2-amino-5-fluoropyridin-3-yl)phenoxy]pyrimidin-5-yl}-3-[2-(pyridin-3-yl)-5-(trifluoromethyl)phenyl]urea di(p-toluenesulfonate)]
- percent improvement (right hind limb weight load ratio) [2, 5]: about 53%
- inhibition rate of rat NGF-induced vascular hyper permeability ([3]; 12 hours before administration of NGF): about 78%
- solubility ([1]; as the substance itself (salt or free base), di(p-toluenesulfonate)): 99 µg/mL
- solubility at 0.25 h [1, 4]: 61 µg/mL

Compound: CS(=O)(=O)c1ccc(C(F)(F)F)cc1NC(=O)Nc1cnc(Oc2ccc(-c3cc(Cl)cnc3N)cc2)nc1.Cl [hydrochloride of Compound (I), 1-{2-[4-(2-amino-5-chloro-3-pyridinyl)phenoxy]-5-pyrimidinyl}-3-[2-(methylsulfonyl)-5-(trifluoromethyl)phenyl]urea Hydrochloride]
- percent improvement (right hind limb weight load ratio) [2, 5]: about 54%
- inhibition rate of rat NGF-induced vascular hyper permeability [3, 6]: about 100%

Compound: Nc1ncc(F)cc1-c1ccc(Oc2ncc(NC(=O)Nc3cc(C(F)(F)F)ccc3-c3cccnc3)cn2)cc1 [dibenzenesulfonate of Compound (II), 1-{2-[4-(2-amino-5-fluoropyridin-3-yl)phenoxy]pyrimidin-5-yl}-3-[2-(pyridin-3-yl)-5-(trifluoromethyl)phenyl]urea dibenzenesulfonate]
- solubility per free base ([1]; FaSSIF, salt value converted to the corresponding free base, dibenzenesulfonate): 52 µg/mL
- solubility ([1]; as the substance itself (salt or free base), dibenzenesulfonate): 81 µg/mL

Compound: Nc1ncc(Cl)cc1-c1ccc(Oc2ncc(NC(=O)Nc3cc(C(F)(F)F)ccc3-n3cccn3)cn2)cc1 [methanesulfonate of Compound (III), 1-(2-(1H-pyrazol-1-yl)-5-(trifluoromethyl)phenyl)-3-(2-(4-(2-amino-5-chloropyridin-3-yl)phenoxy)pyrimidin-5-yl)urea Methanesulfonate]
- percent improvement (right hind limb weight load ratio) [2, 5]: about 61%
- inhibition rate of rat NGF-induced vascular hyper permeability [3, 6]: about 97%
- solubility per free base [1, 7]: 45 µg/mL
- solubility [1, 8]: 53 µg/mL

Compound: CS(=O)(=O)c1ccc(C(F)(F)F)cc1NC(=O)Nc1cnc(Oc2ccc(-c3cc(Cl)cnc3N)cc2)nc1 [methanesulfonate of Compound (I), 1-{2-[4-(2-amino-5-chloro-3-pyridinyl)phenoxy]-5-pyrimidinyl}-3-[2-(methylsulfonyl)-5-(trifluoromethyl)phenyl]urea Methanesulfonate]
- solubility per free base [1, 7]: 47 µg/mL
- solubility [1, 8]: 55 µg/mL
